The term IC50 denotes the point on the concentration scale where inhibition reaches its midpoint. For orientation: MBC means the lowest tested concentration that kills the bacteria rather than only halting them. Lower therefore signals more potent killing. One may read the MIC as the smallest concentration in the dilution series that meets the test's criterion for growth inhibition. A low value points to greater potency.

≈ marks a conversion by molar mass, not a printed value. Read-outs that look alike come from different tables or passages of the source.

This is an account of results in US20110201568A1, “PHYOTOCHEMICAL COMPOSITION AND A PROCESS THEREOF” (priority 2008, published 2011).

Test [1] has as its system cold stress induced ulcer. Briefly: Cold stress induced ulcer model. The format is in vivo, albino Wistar rats.
Test [2] relates to pylorus ligation induced ulcer. Put plainly: Pylorus ligation induced ulcer model. To be noted: 10 mg/kg; mean ± SEM, n = 6. The format is in vivo, albino Wistar rats. The text has this: Details of the study are provided in the below table: 4. [table]
The target of test [3] is porcine pancreatic elastase (Sus scrofa, UniProt P00772). Briefly: Elastase inhibition assay. The format is biochemical. As to the method:
In brief, 233 μl of each test solutions/reference standard (various concentrations) in 100 mM Tris-HCl pH8.0 and 7 μl of enzyme (porcine pancreatic elastase, 0.84 units/ml) solution was incubated at 37° C. for 15 mins. Following incubation, 20 μl of substrate (n-succinyl-ala-ala-ala-p-nitroanilide) solution was added and incubated at 37° C. for 30 mins. The absorbance was measured at 405 nm. A control reaction was carried out without the test sample. The percentage inhibition was calculated by the equation [absorbance (control)−absorbance (test)]/absorbance (control)×100]. The IC50 values were determined using log-probit analysis.

Test [4] concerns Helicobacter pylori clinical strain 80A. Briefly: MIC/MBC microbroth dilution assay, strain 80A. The test is classed as cell-based. The conditions noted are these: cell count ~10^6-10^7 CFU/ml. As to the method: (§1) • MICs of the two samples were determined employing one clinical (80A) and one standard (ATCC 43504) strain (Osato, 2000). • Two-fold serial dilutions of the samples were performed in 96-well microtitre plate. • Plates were kept for appropriate time in Incubator under optimum growth condition. • Following incubation, the plates were examined visually, and the lowest concentration showing complete inhibition of growth was recorded as the MIC of the respective sample.
(§2) • Aliquots of culture in which no growth had been detected were taken from the wells of the above microtitre plates and used to streak on fresh agar plates. • MBCs were determined by visual inspection of such plates after further incubation and the point where no growth (less than 10 colony) appeared was considered as the MBCs.
A general note: Broth dilution looks for growth in wells or tubes with falling amounts of substance.

For test [5], the system named is Helicobacter pylori standard strain ATCC 43504. Put plainly: Anti Helicobacter pylori disc diffusion sensitivity assay, standard strain ATCC 43504. The format is cell-based. To be noted: 40 ng/disc (standard drug). As to the method: (§3) For water containing sample, discs were first placed on the plate and then 5-10 μl of each sample, was added. The results are shown in below table: 10.

The test system is the same in test [6]. Put plainly: MIC/MBC microbroth dilution assay, strain ATCC 43504. The format is cell-based. To be noted: ATCC43504, cell count ~10^6-10^7 CFU/ml. As to the method: as §1, §2
For another test, the system named is Helicobacter pylori. Put plainly: Anti Helicobacter pylori activity, overall observations. The test is classed as cell-based. The conditions noted are these: strains 80A and ATCC 43504.
Test [7] relates to Helicobacter pylori clinical strain 80A. Put plainly: Anti Helicobacter pylori disc diffusion sensitivity assay, clinical strain 80A. The test is classed as cell-based. The conditions noted are these: 10 ng/disc (standard drug). As to the method: as §3
Background: Agar diffusion results depend on both activity and mobility in agar.

Where [8] appears, read: porcine pancreatic elastase, log-probit analysis, read-out: IC50 in elastase inhibition assay (converted).

Chain of porcine pancreatic elastase (P00772 27-266): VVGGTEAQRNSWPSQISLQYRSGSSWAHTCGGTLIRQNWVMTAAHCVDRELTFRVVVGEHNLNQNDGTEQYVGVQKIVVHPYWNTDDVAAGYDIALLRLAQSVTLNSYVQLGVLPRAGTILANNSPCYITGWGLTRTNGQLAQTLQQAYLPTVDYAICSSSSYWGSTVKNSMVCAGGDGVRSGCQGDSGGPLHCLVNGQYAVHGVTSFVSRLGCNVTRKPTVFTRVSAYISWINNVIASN

As for `COc1ccc2[nH]c([S+]([O-])Cc3ncc(C)c(OC)c3C)nc2c1` (centres unmarked) [Omeprazole], in test [1] (10 mg/kg, mean ± SEM, n = 6), the Ulcer index is reported as 0.67 ± 0.49 and the pH is reported as 6.50 ± 0.22. Besides, in test [1] (comparison Table 12 remark, ulcer model not specified), the pH of stomach entry is “the pH to more than 6”. In test [2], this molecule showed a Gastric content of 2.42 ± 0.24 mL, a Total acidity of 15.33 ± 0.92 mEq/L/100 g, a Ulcer index of 3.33 ± 1.38 and a pH of 6.89 ± 0.14.

In the case of `C[C@H]1[C@H](C)CC[C@]2(C(=O)O)CC[C@]3(C)C(=CC[C@@H]4[C@@]5(C)CC[C@H](O)C(C)(C)[C@@H]5CC[C@]43C)[C@H]12` [Ursolic acid], 23600 nM corresponded to half-maximal inhibition in test [3] (IC50).

In the case of `CCCCCCCCCCCCCCCCCCCCOC(=O)/C=C/c1ccc(O)c(O)c1` [Eicosanyl caffeate(1), eicosanyl caffeate], the IC50 in test [3] (setting [8]) was 2150 nM.

With `CCCCCCCCCCCCCCCCCCCCCCOC(=O)/C=C/c1ccc(O)c(O)c1` [Docosyl caffeate (2), docosyl caffeate], the half-maximal inhibitory concentration (IC50) in test [3] (setting [8]) is 2860 nM.

`CC[C@H]1OC(=O)[C@H](C)[C@@H](O[C@H]2C[C@@](C)(OC)[C@@H](O)[C@H](C)O2)[C@H](C)[C@@H](O[C@@H]2O[C@H](C)C[C@H](N(C)C)[C@H]2O)[C@](C)(OC)C[C@@H](C)C(=O)[C@H](C)[C@@H](O)[C@]1(C)O` [Clarithromycin]: in test [4], the minimal bactericidal concentration (MBC) came to 0.025 µg/mL (≈ 0.0334 µM) and the minimal inhibitory concentration (MIC) stood at 0.013 µg/mL (≈ 0.0174 µM). In addition, the “Inhibition Zone Diameter in strain ATCC 43504” value in test [5] is 1.8-2.0 cm. In test [6], this molecule gave an MBC of 0.05 µg/mL (≈ 0.0668 µM) and an MIC of 0.025 µg/mL (≈ 0.0334 µM). Further, the “anti Helicobacter pylori activity (disc diffusion observation)” value with Helicobacter pylori is listed as “showed appropriate zone of inhibition”. The “Inhibition Zone Diameter in strain 80A” value in test [7] is given as 1.8-2.0 cm.
